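Each compound was tested at five concentrations against cells in 96-well plates for 48 hours. Here, GI50 denotes the concentration required for 50% inhibition of growth. Definition used: TGI = concentration required for complete inhibition of growth.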
Tests used:
Assay in all cases: inhibition of tumour cell growth, NCI panel, 48 h; in the data active = GI50 below about 0.43 µM; inactive = the rest
[1] = tested on: RXF 393 renal
[2] = tested on: CCRF-CEM leukemia
[3] = tested on: NCI-H460 lung
[4] = tested on: OVCAR-8 ovarian
[5] = tested on: IGROV1 ovarian
[6] = tested on: UO-31 renal
[7] = tested on: U251 CNS
[8] = tested on: UACC-257 melanoma
[9] = tested on: COLO 205 colon
[10] = tested on: NCI-H522 lung
[11] = tested on: HCC-2998 colon
[12] = tested on: PC-3 prostate
[13] = tested on: DU-145 prostate
[14] = tested on: SW-620 colon
[15] = tested on: SK-MEL-2 melanoma
[16] = tested on: SNB-19 CNS
[17] = tested on: SK-MEL-5 melanoma
[18] = tested on: SN12C renal
[19] = tested on: UACC-62 melanoma
[20] = tested on: HCT-116 colon
[21] = tested on: HOP-92 NSCLC
[22] = tested on: A549 NSCLC
[23] = tested on: SF-295 CNS
[24] = tested on: MOLT-4 leukemia
[25] = tested on: BT-549 breast
[26] = tested on: NCI/ADR-RES ovarian
[27] = tested on: 786-0 renal
[28] = tested on: OVCAR-4 ovarian
[29] = tested on: T-47D breast
[30] = tested on: RPMI-8226 leukemia
[31] = tested on: LOX IMVI melanoma
[32] = tested on: OVCAR-5 ovarian
[33] = tested on: ACHN renal
[34] = tested on: A498 renal
[35] = tested on: MDA-MB-231 breast
[36] = tested on: HT29 colon
[37] = tested on: CAKI-1 renal
[38] = tested on: HCT-15 colon
[39] = tested on: MDA-MB-435
[40] = tested on: OVCAR-3 ovarian
[41] = tested on: TK-10 renal
[42] = tested on: MCF7 breast
[43] = tested on: HOP-62 NSCLC
[44] = tested on: SF-539 CNS
[45] = tested on: SK-OV-3 ovarian
[46] = tested on: EKVX NSCLC
[47] = tested on: HL-60(TB) leukemia
[48] = tested on: NCI-H23 lung
[49] = tested on: NCI-H226 lung
[50] = tested on: K-562 leukemia
[51] = tested on: MALME-3M melanoma
[52] = tested on: SF-268 CNS
[53] = tested on: KM12 colon
[54] = tested on: M14 melanoma
[55] = tested on: SR leukemia
[56] = tested on: SK-MEL-28 melanoma
[57] = tested on: HS 578T breast
[58] = tested on: SNB-75 CNS

COc1ccc(C2=Nc3cc(C)c(C)cc3NC(c3ccccc3)C2)cc1 (configuration not stated)
37.6 µM: TGI [9]
> 100 µM: TGI [1] | TGI [2] | TGI [3] | TGI [4] | TGI [5] | TGI [6] | TGI [7] | TGI [8] | TGI [10] | TGI [11] | TGI [12] | TGI [13] | TGI [14] | TGI [15] | TGI [16] | TGI [17] | TGI [18] | TGI [19] | TGI [20] | TGI [21] | TGI [22] | TGI [23] | TGI [24] | TGI [25] | TGI [26] | TGI [27] | TGI [28] | TGI [29] | TGI [30] | TGI [31] | TGI [32] | TGI [33] | TGI [34] | TGI [35] | TGI [36] | TGI [37] | TGI [38] | TGI [39] | TGI [40] | TGI [41] | TGI [42] | TGI [43] | TGI [44] | TGI [45] | TGI [46] | TGI [47] | TGI [48] | TGI [49] | TGI [50] | TGI [51] | TGI [52] | TGI [53] | TGI [54] | TGI [56] | TGI [57]
54.5 µM: TGI [55]

C=C(C)[C@@H]1CC[C@]2(C(=O)N[C@H](CO)Cc3ccccc3)CC[C@]3(C)[C@H](CC[C@@H]4[C@@]5(C)CCCNC(C)(C)[C@@H]5CC[C@]43C)[C@@H]12
0.539 µM: TGI [36]
2.87 µM: TGI [58]
2.91 µM: TGI [53]
3.34 µM: TGI [8]
3.08 µM: TGI [41]
active: GI50 [36] 0.24 µM
3.18 µM: TGI [15]
inactive: GI50 [8] 1.78 µM | GI50 [10] 1.75 µM | GI50 [15] 1.72 µM | GI50 [17] 1.67 µM | GI50 [19] 1.76 µM | GI50 [58] 1.43 µM | GI50 [21] 1.42 µM | GI50 [34] 1.49 µM | GI50 [37] 1.49 µM | GI50 [41] 1.61 µM | GI50 [53] 1.47 µM
3.07 µM: TGI [17]
3.35 µM: TGI [10]
2.94 µM: TGI [34]
2.89 µM: TGI [37]
3.39 µM: TGI [19]
3.02 µM: TGI [21]

Cc1c(C(=O)Nc2ccccc2)sc2ncn(Cc3cccc(Cl)c3)c(=O)c12
94.5 µM: TGI [32]
40.5 µM: TGI [21]
> 100 µM: TGI [3] | TGI [5] | TGI [7] | TGI [8] | TGI [9] | TGI [10] | TGI [13] | TGI [14] | TGI [15] | TGI [16] | TGI [17] | TGI [19] | TGI [58] | TGI [20] | TGI [23] | TGI [24] | TGI [26] | TGI [27] | TGI [28] | TGI [29] | TGI [30] | TGI [31] | TGI [33] | TGI [36] | TGI [38] | TGI [39] | TGI [40] | TGI [41] | TGI [42] | TGI [44] | TGI [45] | TGI [46] | TGI [47] | TGI [48] | TGI [50] | TGI [52] | TGI [53] | TGI [54] | TGI [56] | TGI [57]
67.8 µM: TGI [11]
38.2 µM: TGI [35]
93.1 µM: TGI [22]
97.3 µM: TGI [2]
41.6 µM: TGI [49]
85.1 µM: TGI [18]
53 µM: TGI [55]
45.8 µM: TGI [43]
27.6 µM: TGI [25]
89.1 µM: TGI [4]
84.5 µM: TGI [37]
71.4 µM: TGI [1]
49.6 µM: TGI [12]
39.7 µM: TGI [6]
inactive: GI50 [1] 24.8 µM | GI50 [2] 22.1 µM | GI50 [3] > 100 µM | GI50 [4] 28.7 µM | GI50 [5] 15.6 µM | GI50 [6] 13 µM | GI50 [7] 34 µM | GI50 [8] 34.4 µM | GI50 [9] > 100 µM | GI50 [10] 19 µM | GI50 [11] 4.67 µM | GI50 [12] 16.5 µM | GI50 [13] 34.9 µM | GI50 [14] 53.3 µM | GI50 [15] 49.2 µM | GI50 [16] 30.1 µM | GI50 [17] 25.7 µM | GI50 [18] 20 µM | GI50 [19] 18.8 µM | GI50 [58] 33.3 µM | GI50 [20] 19.2 µM | GI50 [21] 16.5 µM | GI50 [22] 29.6 µM | GI50 [23] 32.4 µM | GI50 [24] 51.8 µM | GI50 [25] 11.3 µM | GI50 [26] 25.7 µM | GI50 [27] 29.6 µM | GI50 [28] 27.8 µM | GI50 [29] 42.9 µM | GI50 [30] 10.4 µM | GI50 [31] 57.3 µM | GI50 [32] 27 µM | GI50 [33] 30.2 µM | GI50 [35] 12.1 µM | GI50 [36] 78.4 µM | GI50 [37] 15.4 µM | GI50 [38] 13.2 µM | GI50 [39] 24.2 µM | GI50 [40] 41 µM | GI50 [41] 11.7 µM | GI50 [42] 10.6 µM | GI50 [43] 18.3 µM | GI50 [44] 22.4 µM | GI50 [45] > 100 µM | GI50 [46] 30.2 µM | GI50 [47] 16.3 µM | GI50 [48] 6.5 µM | GI50 [49] 10.6 µM | GI50 [50] 4.87 µM | GI50 [52] 73.2 µM | GI50 [53] 99 µM | GI50 [54] 43.6 µM | GI50 [55] 14.8 µM | GI50 [56] > 100 µM | GI50 [57] 42.6 µM

CC1NC(=O)C2Cc3ccc(O)c(c3)Oc3ccc(cc3)C(O)C(C(=O)N2C)N(C)C(=O)C(C)NC(=O)C(Cc2ccc(O)cc2)N(C)C(=O)C(C)NC1=O (configuration not stated)
> 100 µM: TGI [8] | TGI [21] | TGI [25] | TGI [48]
